Test results published in patent US20240294548A1, “TRICYCLIC SULTAMS AND SULFAMIDES AS ANTITUMOR AGENTS” (PELOTON THERAPEUTICS INC., priority 2021, published 2024).

Experiments:
[1] = biological target: T1, DCAF15 RBM39 ternary complex (Homo sapiens, UniProt Q14498+Q66K64, DEL276-383); assay: DCAF15 RBM39 complex formation assay (FRET); format: biochemical; conditions: FRET ratio, 20 nM DDB1DB/DCAF15, 50 nM RBM39 R1R2, overnight at 4° C.; read-out: DCAF15 RBM39 ternary complex EC50
T1 construct: Amino acids 150 to 331 of RBM39 were cloned into pGEX4T3; GST (from the pGEX4T3 vector, own knowledge) followed by a TEV cleavage site (N); made in house; host or cells: Sf9 baculovirus (DDB1ΔB/DCAF15); E. coli (RBM39 R1R2)
T1 sequence (Q66K64 with tags, fused parts or gaps DEL276-383): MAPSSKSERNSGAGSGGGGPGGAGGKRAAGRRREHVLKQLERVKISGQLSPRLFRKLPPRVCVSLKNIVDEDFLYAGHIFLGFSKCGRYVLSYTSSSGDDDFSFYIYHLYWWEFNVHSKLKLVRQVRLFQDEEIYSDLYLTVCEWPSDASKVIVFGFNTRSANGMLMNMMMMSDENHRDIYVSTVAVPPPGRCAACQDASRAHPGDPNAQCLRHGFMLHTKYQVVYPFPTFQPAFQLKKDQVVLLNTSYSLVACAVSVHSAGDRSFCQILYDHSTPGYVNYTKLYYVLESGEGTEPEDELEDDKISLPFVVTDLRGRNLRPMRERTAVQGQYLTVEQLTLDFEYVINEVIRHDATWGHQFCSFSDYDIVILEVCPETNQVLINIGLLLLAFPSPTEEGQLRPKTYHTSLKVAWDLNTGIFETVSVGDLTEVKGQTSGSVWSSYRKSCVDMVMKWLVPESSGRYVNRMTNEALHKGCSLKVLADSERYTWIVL
T1 sequence (Q14498 150-331, stated change not applied): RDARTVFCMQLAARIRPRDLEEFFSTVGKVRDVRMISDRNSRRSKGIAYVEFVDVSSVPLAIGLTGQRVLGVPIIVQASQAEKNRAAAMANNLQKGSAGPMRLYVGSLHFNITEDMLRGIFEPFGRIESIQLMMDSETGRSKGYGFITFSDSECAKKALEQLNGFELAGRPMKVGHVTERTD
How it was run: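 Mix of 20 nM DDB1DB/DCAF15, 50 nM RBM39 R1R2, 0.2 nM Eu-anti-6×His and 50 nM APC-anti-FLAG (25 mM HEPES pH 7.5, 100 mM NaCl). Compounds, 1 μM down in 3-fold steps over 14 points, kept overnight at 4 °C.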

[2] = biological target: T2, DCAF15 (DDA1-DDB1ΔB-DCAF15Δpro) (Homo sapiens, UniProt Q66K64, DEL276-383); assay: DCAF15 displacement assay (displacement FRET, probe PT7795); format: binding; conditions: displacement of PT7795 (300 nM), compound 0.01 to 100 μM, 18 hours incubation; read-out: DCAF15 displacement IC50
T2 construct: made in house; host or cells: Sf9 (Bac-to-Bac baculovirus)

[3] = tested on: HCT116 human colorectal carcinoma cells; assay: CellTiter-Glo assay (cell viability); format: cell-based; conditions: HCT-116, 72 h, HCT116 cells, 3 days, CellTiter-Glo luminescence, read-out: CTG IC50
How it was run: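 Cells (3,000/well) in DMEM/10% FBS were treated next day with 3-fold serial dilutions (final top […]) in triplicate for 3 days. Viability read by CellTiter-Glo luminescence; IC50 derived from dose-response.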

| Compound | EC50 [1] | IC50 [2] | IC50 [3] |
| --- | --- | --- | --- |
| COCC[C@@H]1Cc2cc(Cl)c3c(Cl)c[nH]c3c2NS1(=O)=O (single isomer, unassigned) [Compound 30] | 1.3 nM | 2580 nM | 184 nM |
| O=S1(=O)Nc2c(cc(Cl)c3c(Cl)c[nH]c23)CN1Cc1ccnnc1 [Compound 67, 6,7-dichloro-3-(pyridazin-4-ylmethyl)-1,3,4,9-tetrahydro-[1,2,6] thiadiazino[4,3-g]indole 2,2-dioxide] | 2 nM | 452 nM | 320 nM |
| O=S1(=O)Nc2c(cc(Cl)c3c(Cl)c[nH]c23)CN1Cc1ccc(Cl)nc1 [Compound 12, 6,7-dichloro-3-((6-chloropyridin-3-yl)methyl)-1,3,4,9-tetrahydro-[1,2,6]thiadiazino[4,3-g]indole 2,2-dioxide] | 0.7 nM | 1110 nM | 125 nM |
| Cn1cc(CN2Cc3cc(Cl)c4c(Cl)c[nH]c4c3NS2(=O)=O)ccc1=O [Compound 65, 5-((6,7-dichloro-2,2-dioxido-4,9-dihydro-[1,2,6]thiadiazino[4,3-g]indol-3(1H)-yl)methyl)-1-methylpyridin-2(1H)-one] | 1.9 nM | 934 nM | 493 nM |
| CC1(C)Cc2cc(Cl)c3c(Cl)c[nH]c3c2NS1(=O)=O [Compound 66, 6,7-dichloro-3,3-dimethyl-1,3,4,9-tetrahydro-[1,2]thiazino[4,3-g]indole 2,2-dioxide] | 108 nM | ≥ 100000 nM | 5000 nM |
| CC(=O)N1CCC(CN2Cc3cc(Cl)c4c(Cl)c[nH]c4c3NS2(=O)=O)CC1 [Compound 45, 1-(4-((6,7-dichloro-2,2-dioxido-4,9-dihydro-[1,2,6]thiadiazino[4,3-g]indol-3(1H)-yl)methyl)piperidin-1-yl)ethan-1-one] | 1.6 nM | 127 nM | 52.8 nM |
| N#Cc1ccc(CN2Cc3cc(Cl)c4c(Cl)c[nH]c4c3NS2(=O)=O)cc1 [Compound 50, 4-((6,7-dichloro-2,2-dioxido-4,9-dihydro-[1,2,6]thiadiazino[4,3-g]indol-3(1H)-yl)methyl) benzonitrile] | 1.1 nM | 5710 nM | 881 nM |
| Cc1ccc(CN2Cc3cc(Cl)c4c(Cl)c[nH]c4c3NS2(=O)=O)cn1 [Compound 48, 6,7-dichloro-3-((6-methylpyridin-3-yl)methyl)-1,3,4,9-tetrahydro-[1,2,6] thiadiazino[4,3-g]indole 2,2-dioxide] | 0.6 nM | 623 nM | 259 nM |

Second part, the compound after the results:

| EC50 [1] | IC50 [2] | IC50 [3] | Compound |
| --- | --- | --- | --- |
| 3.9 nM | 8300 nM | 799 nM | O=S1(=O)Nc2c(cc(Cl)c3c(Cl)c[nH]c23)CN1CCO [Compound 24, 6,7-dichloro-3-(2-hydroxyethyl)-1,3,4,9-tetrahydro-[1,2,6] thiadiazino[4,3-g]indole 2,2-dioxide] |
| 2.3 nM | 781 nM | 66.9 nM | CN1CCC(CN2Cc3cc(Cl)c4c(Cl)c[nH]c4c3NS2(=O)=O)CC1 [Compound 83, 6,7-dichloro-3-((1-methylpiperidin-4-yl)methyl)-1,3,4,9-tetrahydro-[1,2,6]thiadiazino[4,3-g]indole 2,2-dioxide] |
| 4.3 nM | 33100 nM | 1790 nM | O=S1(=O)Nc2c(cc(Cl)c3c(Cl)c[nH]c23)CN1CCc1ccccc1 [Compound 84, 6,7-dichloro-3-phenethyl-1,3,4,9-tetrahydro-[1,2,6] thiadiazino[4,3-g]indole 2,2-dioxide] |
| 1.2 nM | 507 nM | 130 nM | O=S1(=O)Nc2c(cc(Cl)c3c(Cl)c[nH]c23)CN1Cc1cccnc1 [Compound 26, 6,7-dichloro-3-(pyridin-3-ylmethyl)-1,3,4,9-tetrahydro-[1,2,6] thiadiazino[4,3-g] indole 2,2-dioxide] |
